Measured values reported in patent publication EP3069727B1, “PHARMACEUTICAL COMPOSITION FOR CANCER PREVENTION AND TREATMENT CONTAINING PEPTIDE ORIGINATED FROM C12ORF59 PROTEIN AS AN ACTIVE INGREDIENT” (Korea Research Institute of Bioscience and Biotechnology, priority 2015, dated 2018).
Residues, ends and D or L forms follow the SMILES beside them.

Assays:
[1] = system: C8161 (human melanoma) cells; assay: In vivo experimental metastasis mouse model; design: species or system Nude mice (BALB/c-nude); conditions: 200µg/100µℓ PBS intravenously twice per week (total 7 times); 4 weeks; vs PBS
Protocol: In vivo therapeutic efficacy of A_intact peptide was evaluated using experimental metastasis mouse model. The in vivo experimental metastasis model was constructed as described below.
Nude mice (BALB/c-nude, 6 weeks old, female) were obtained from Charles River Japan (Japan). C8161 (human melanoma) cells (8 x 10^5 cells in 100 µℓ PBS per mouse) were injected into the tail vein. Two days later, mice were randomized into control and treatment groups (n=5 per group) . Modified A_intact peptide (200µg/100µℓ PBS) or A_intact-Fc fusion protein (100µg/100µℓ PBS) were intravenously injected into each mouse twice per week (total 7 times). As a negative control, PBS (100µℓ/mouse) was injected. All animals were killed at 4 weeks after injection of cancer cells. Lung and liver were excised and fixed in 10% formalin for 24 h. Metastatic foci on the surface of lung and liver were counted.

[2] = system: SW480 cells; assay: Invasion assay with peptide-treated SW480 cells; type: cell-based; conditions: concentration not given
Protocol: (§1) Particularly, the porous membrane of 24-well transwell plate (8 µm pore size; Costar, USA) was coated with 100 µℓ of matrigel (BD Biosciences, USA) diluted in serum free medium at the concentration of 250 µg/mℓ, which stood at room temperature for 1 hour for fixing. The lower part of the transwell plate was coated with 100 µℓ of collagen type I (Sigma) at the concentration of 20 µg/mℓ. The said collagen type I was used as a chemoattractant. 1×10^4 cells resuspended in serum free medium were distributed in the upper chamber of the said 24-well transwell plate, followed by culture at 37°C with 5% CO2 for 48 hours, during which the cells were induced to migrate from the upper chamber to the lower chamber. The non-migrated cells were eliminated from the surface of the upper chamber. […] The excessive crystal violet solution was washed off with distilled water. The selected area (×100) was photographed. The number of the cells migrated was counted from 5 different selected areas. Then, mean value and standard error were obtained.
SW480 colorectal cancer cells were treated with peptides originated from C12orf59, and effects of the peptids on invasion of the cells were analyzed.

[3] = system: SW480sub cells; assay: Invasion assay (Matrigel-coated transwell, collagen type I chemoattractant) with peptide-treated SW480sub cells; type: cell-based; conditions: for invasion reduced compared to the vehicle control: peptide 50 µM
Protocol: SW480sub was subpopulation of SW480 having high in vitro invasion and in vivo metastasis ability. The effect of each peptide on colorectal cancer cell invasion was analyzed using the said SW480sub. SW480sub cells were mixed with each peptide, followed by pre-incubation for 30 minutes.
as §1

[4] = system: colorectal cancer cells; assay: Cellular survival rate of colorectal cancer cells measured by absorbance; type: cell-based; conditions: as in Example <3-2>
Protocol: (§2) Particularly, 100 µℓ of poly-HEMA (Sigma) at the concentration of 12 mg/mℓ was loaded in 96-well plate, which stood in clean bench for 1 day, followed by drying. On the next day, the plate was coated with Poly-HEMA once again. Cells were distributed in the poly-HEMA coated plate by 100 µℓ/well (1×10^4 cells/well). At that time, serum-free medium was used. 6 days later, 10 µℓ of CCK-8 reagent (Dojindo cat. CK04-13) was added to each well, followed by reaction for 3 hours. Then, OD450 was measured.
In particular, a cellular survival rate was measured using absorbance in the same manner as in Example <3-2>.

[5] = system: C8161 (human melanoma) cell line; assay: Invasion assay with C8161 cells (Matrigel-coated Transwell); type: cell-based; conditions: 24 h
Protocol: Specifically, C8161 (human melanoma) cell line was cultured in DMEM containing 10% FBS, penicillin-streptomycin, L-glutamine, sodium pyruvate and glucose. C8161 cells (1 x 10^4) in the presence of the peptide were plated in serum-free medium on 24-well Transwell inserts (8 µm pore size; Costar, USA) coated with 25 µg of […] (BD Biosciences, USA). The underside of the insert was coated with 100 µℓ of collagen type I (Sigma) at the concentration of 5 µg/mℓ. […] The number of cells that had invaded was counted in five representative fields per insert. Then, mean value and standard deviation were obtained.

[6] = system: SW480 cells; assay: Cell survivability under anchorage independent condition (poly-HEMA plate, CCK-8, OD450); type: cell-based; conditions: peptide 100 µg/mℓ, 6 days
Protocol: 6 days later, cell survivability was measured by colorimetric technique under the anchorage independent condition.
as §2

Compound	invasion of cells reduced by [2] [%]	invasion reduced compared to the vehicle control [3] [%]	effect on the survival of colorectal cancer cells [4]	also measured
CC(=O)N[C@@H](CCC(=O)O)C(=O)N[C@@H](CCC(=O)O)C(=O)N[C@@H](CC(N)=O)C(=O)N[C@@H](CS)C(=O)NCC(=O)N[C@@H](CC(N)=O)C(=O)N1CCC[C@H]1C(=O)N[C@@H](CCC(=O)O)C(=O)N[C@@H](Cc1c[nH]cn1)C(=O)N[C@@H](CS)C(=O)N[C@@H](CC(C)C)C(=O)N[C@H](C(=O)N[C@H](C(=O)N[C@@H](CC(=O)O)C(=O)N[C@@H](Cc1c[nH]c2ccccc12)C(=O)N[C@H](C(=O)N[C@@H](Cc1c[nH]cn1)C(N)=O)C(C)C)[C@@H](C)O)[C@@H](C)O [Modified A_intact peptide] (Ac-EENCGNPEHCLTTDWVH-NH2)	–	–	–	metastasis to the liver (metastatic nodules) [1]: inhibited; metastasis to the lung (metastatic nodules) [1]: inhibited
SWRPQPCCISSCCLT [B_C-term1]	45	73	inhibitory effects on the survival of colorectal cancer cells in a concentration-dependent manner	–
SWRPQPCCISSCCLTTDWVH [B_intact, fragment of C12orf59 isoform 2 extracellular domain, 20 amino acids]	47	–	–	invasion rate reduced compared to the control ([3]; peptide 43 µM): 29%; colorectal cancer cell invasion reduced by ([3]; peptide 100 µg/mℓ, 48 hours): 90%; C8161 invasion reduced by ([5]; 30 µg/mℓ): 48%; C8161 invasion reduced by ([5]; 100 µg/mℓ): 70%; cell survivability reduced by [6]: 90%
PCCISSCCLT [B_Cen]	–	33	–	–
PCCISSCCLTTDWVH [B_N-term]	55	–	inhibitory effects on the survival of colorectal cancer cells in a concentration-dependent manner	–
